SMILES strings stand for the structures. Counter-ions that a name gives are not always drawn.

Compound `CCc1ccccc1O` [2-ethylphenol] showed a flash point of 78.00 °C.

In turn, `CCC(C(=O)O)C(=O)O` [2-ethylpropanedioic acid] returned a flash point of 85.00 °C.

`O=C(Cl)c1ccccc1F` [2-fluorobenzoyl chloride] gave a flash point of 82.00 °C.

For `O=COCCOC=O` [2-formyloxyethyl formate], the flash point came out at 93.00 °C.

The compound `CC(C)(C)OO` [2-hydroperoxy-2-methylpropane] came in with a flash point of 27.00 °C.

Take `CC(C)(OO)c1ccccc1` [2-hydroperoxypropan-2-ylbenzene]: the flash point stood at 57.00 °C.

With `N#CC(O)c1ccccc1` (centres undefined) [2-hydroxy-2-phenylacetonitrile], the flash point stood at 82.00 °C.

Compound `CSCCC(O)C(=O)O` (centres undefined) [2-hydroxy-4-methylsulfanylbutanoic acid] came in with a flash point of 121.00 °C.

Consider `O=Cc1ccccc1O` [2-hydroxybenzaldehyde], for which the flash point was determined as 78.00 °C.

As for `O=C(O)c1ccccc1O` [2-hydroxybenzoic acid], the flash point was found to be 157.00 °C.

The compound `C=C(C)C(=O)OCCO` [2-hydroxyethyl 2-methylprop-2-enoate] showed a flash point of 97.00 °C.

In turn, `C=CC(=O)OCCO` [2-hydroxyethyl prop-2-enoate] gave a flash point of 101.00 °C.

Turning to `C=CC(=O)OCC(C)O` (centres undefined) [2-hydroxypropyl prop-2-enoate], the flash point worked out at 65.00 °C.

For `CCC(C)(C)OC` [2-methoxy-2-methylbutane], the flash point was -7.00 °C.

`COC(C)(C)C` [2-methoxy-2-methylpropane] registered a flash point of -26.00 °C.

The compound `C=CCc1ccc(O)c(OC)c1` [2-methoxy-4-prop-2-enylphenol] registered a flash point of 104.00 °C.

As for `COc1ccccc1N` [2-methoxyaniline], the flash point came to 99.00 °C.

The compound `C=CC(=O)OCCOC` [2-methoxyethyl prop-2-enoate] had a flash point of 82.00 °C.

For the compound `CC(C=O)=Cc1ccccc1` [2-methyl-3-phenylprop-2-enal], the flash point came to 79.00 °C.

`Cc1ccc(C(C)C)cc1O` [2-methyl-5-propan-2-ylphenol]: the flash point stood at 100.00 °C.

With `CC(C)CN(CC(C)C)CC(C)C` [2-methyl-N,N-bis(2-methylpropyl)propan-1-amine], the flash point was 51.00 °C.

Regarding `CC1CN1` (centres undefined) [2-methylaziridine], the flash point is -4.00 °C.

In turn, `Cc1ccccc1C=O` [2-methylbenzaldehyde] registered a flash point of 67.00 °C.

Regarding `C#CC(C)(C)O` [2-methylbut-3-yn-2-ol], the flash point turned out to be 25.00 °C.

`CCC(C)C` [2-methylbutane] showed a flash point of -57.00 °C.

Take `CC1CCCCC1O` (centres undefined) [2-methylcyclohexan-1-ol]: the flash point turned out to be 59.00 °C.

As to `CCCCCC(C)(C)S` [2-methylheptane-2-thiol], the flash point turned out to be 46.00 °C.

In turn, `Cc1ccc2ccccc2c1` [2-methylnaphthalene] registered a flash point of 98.00 °C.

As to `CC(C#N)CCC#N` (centres undefined) [2-methylpentanedinitrile], the flash point turned out to be 126.00 °C.

`Cc1ccccc1O` [2-methylphenol] gave a flash point of 81.00 °C.

Regarding `C=C(C)CO` [2-methylprop-2-en-1-ol], the flash point amounted to 33.00 °C.

In the case of `C=C(C)C#N` [2-methylprop-2-enenitrile], the flash point was found to be 13.00 °C.

For the compound `CC(C)C=O` [2-methylpropanal], the flash point is -40.00 °C.

`CC(CO)CO` [2-methylpropane-1,3-diol]: the flash point amounted to 127.00 °C.

For the compound `CC(C)C(=O)O.CC(C)C(O)C(C)(C)CO` (centres undefined) [2-methylpropanoic acid;2,2,4-trimethylpentane-1,3-diol], the flash point is 120.00 °C.

As for `CC(C)C(=O)O` [2-methylpropanoic acid], the flash point is 56.00 °C.

`C=C(C)C(=O)OCC(C)C` [2-methylpropyl 2-methylprop-2-enoate]: the flash point amounted to 49.00 °C.

As for `CC(C)CON=O` [2-methylpropyl nitrite], the flash point was -23.00 °C.

As to `O=[N+]([O-])c1ccccc1O` [2-nitrophenol], the flash point is 108.00 °C.

`CC(C)[N+](=O)[O-]` [2-nitropropane]: the flash point turned out to be 24.00 °C.

On to `O=C(O)Cc1ccccc1` [2-phenylacetic acid], for which the flash point was found to be 132.00 °C.

For `Oc1ccccc1-c1ccccc1` [2-phenylphenol], the flash point was found to be 124.00 °C.

Consider `CC(C)OCCO` [2-propan-2-yloxyethanol], for which the flash point amounted to 33.00 °C.

As to `CC(C)OC(C)C` [2-propan-2-yloxypropane], the flash point was -28.00 °C.

In turn, `CC(C)c1ccccc1O` [2-propan-2-ylphenol] had a flash point of 104.00 °C.

Consider `CCCOCCO` [2-propoxyethanol], for which the flash point was 49.00 °C.

`CCCC(CCC)C(=O)O` [2-propylpentanoic acid] gave a flash point of 111.00 °C.

`OCCS` [2-sulfanylethanol] returned a flash point of 74.00 °C.

Compound `CC(C)(C)c1cc(O)ccc1O` [2-tert-butylbenzene-1,4-diol] displayed a flash point of 171.00 °C.

The compound `CC(=O)C(C)(C)C` [3,3-dimethylbutan-2-one] registered a flash point of 5.00 °C.

Regarding `Nc1ccc(Cl)c(Cl)c1` [3,4-dichloroaniline], the flash point came out at 166.00 °C.

With `O=C1CCCc2ccccc21` [3,4-dihydro-2H-naphthalen-1-one], the flash point stood at 129.00 °C.

The compound `O=C1CCc2ccccc2O1` [3,4-dihydrochromen-2-one] yielded a flash point of 130.00 °C.

`CC1=CC(=O)CC(C)(C)C1` [3,5,5-trimethylcyclohex-2-en-1-one] returned a flash point of 84.00 °C.

For the compound `Cc1cc(C)cc(O)c1` [3,5-dimethylphenol], the flash point amounted to 80.00 °C.

In the case of `CC(C)=CCCC(C)CC=O` (centres undefined) [3,7-dimethyloct-6-enal], the flash point was 74.00 °C.

`C=CC(C)(CCC=C(C)C)OC(C)=O` (centres undefined) [3,7-dimethylocta-1,6-dien-3-yl acetate] registered a flash point of 94.00 °C.

Compound `N#CCCNCCC#N` [3-(2-cyanoethylamino)propanenitrile] gave a flash point of 110.00 °C.

Turning to `CCC1CCC(CCC(=O)O)C1` (centres undefined) [3-(3-ethylcyclopentyl)propanoic acid], the flash point was found to be 101.00 °C.

`CC1(C)CC(N)CC(C)(CN)C1` (centres undefined) [3-(aminomethyl)-3,5,5-trimethylcyclohexan-1-amine] yielded a flash point of 110.00 °C.

As for `CN(C)CCC#N` [3-(dimethylamino)propanenitrile], the flash point stood at 64.00 °C.

Compound `C1CC2OC2CC1C1CO1` (centres undefined) [3-(oxiran-2-yl)-7-oxabicyclo[4.1.0]heptane] had a flash point of 110.00 °C.

The compound `Nc1cccc(C(F)(F)F)c1` [3-(trifluoromethyl)aniline] gave a flash point of 85.00 °C.

For `CN1CCC[C@H]1c1cccnc1` [3-[(2S)-1-methylpyrrolidin-2-yl]pyridine], the flash point stood at 95.00 °C.

`NCCCO` [3-aminopropan-1-ol] displayed a flash point of 79.00 °C.

`C=CCBr` [3-bromoprop-1-ene] came in with a flash point of -2.00 °C.

`C#CCBr` [3-bromoprop-1-yne]: the flash point was 10.00 °C.

Compound `Cc1ccc(N)cc1Cl` [3-chloro-4-methylaniline] had a flash point of 100.00 °C.

Regarding `Nc1cccc(Cl)c1` [3-chloroaniline], the flash point amounted to 124.00 °C.

On to `C=CCCl` [3-chloroprop-1-ene], for which the flash point was -32.00 °C.

With `N#CCCCl` [3-chloropropanenitrile], the flash point came to 76.00 °C.

In turn, `CCOCCCO` [3-ethoxypropan-1-ol] showed a flash point of 54.00 °C.

The compound `CC(=O)C(C)O` (centres undefined) [3-hydroxybutan-2-one] displayed a flash point of 41.00 °C.

Regarding `CC(O)CC=O` (centres undefined) [3-hydroxybutanal], the flash point came out at 66.00 °C.

As for `C=CC(=O)OCCCO` [3-hydroxypropyl prop-2-enoate], the flash point worked out at 97.00 °C.

The compound `C=CCN=C=S` [3-isothiocyanatoprop-1-ene] yielded a flash point of 46.00 °C.

Compound `CCC=CCC1=C(C)CCC1=O` [3-methyl-2-pent-2-enylcyclopent-2-en-1-one] came in with a flash point of 107.00 °C.

As to `Cc1cccc(N)c1` [3-methylaniline], the flash point was found to be 86.00 °C.

The compound `CSCCC=O` [3-methylsulfanylpropanal] came in with a flash point of 61.00 °C.

Turning to `CC(=O)CC(=O)Nc1ccccc1` [3-oxo-N-phenylbutanamide], the flash point was 163.00 °C.

`S=c1[nH]c2ccccc2s1` [3H-1,3-benzothiazole-2-thione] registered a flash point of 200.00 °C.

Consider `O=C1OC(=O)C2CC=CCC12` (centres undefined) [3a,4,7,7a-tetrahydro-2-benzofuran-1,3-dione], for which the flash point is 157.00 °C.

As for `O=C1OC(=O)c2c(Cl)c(Cl)c(Cl)c(Cl)c21` [4,5,6,7-tetrachloro-2-benzofuran-1,3-dione], the flash point stood at 362.00 °C.

Compound `CC(=O)C=CC1C(C)=CCCC1(C)C` (centres undefined) [4-(2,6,6-trimethylcyclohex-2-en-1-yl)but-3-en-2-one] came in with a flash point of 118.00 °C.

In turn, `CC1(N)CCC(C(C)(C)N)CC1` (centres undefined) [4-(2-aminopropan-2-yl)-1-methylcyclohexan-1-amine] yielded a flash point of 93.00 °C.

For the compound `CCC(C)(C)c1ccc(O)cc1` [4-(2-methylbutan-2-yl)phenol], the flash point worked out at 111.00 °C.

`Cc1cc(-c2ccc(N)c(C)c2)ccc1N` [4-(4-amino-3-methylphenyl)-2-methylaniline] had a flash point of 244.00 °C.

Compound `C1CN(SSN2CCOCC2)CCO1` [4-(morpholin-4-yldisulfanyl)morpholine] showed a flash point of 121.00 °C.

Compound `CN(C)c1ccc(N)cc1` [4-N,4-N-dimethylbenzene-1,4-diamine] gave a flash point of 91.00 °C.

The values above are taken from a flash point compilation (Sun et al. 2020).
